Experimental data: patent publication US20230416830A1, “METHODS AND COMPOSITIONS FOR PREDICTING AND TREATING UVEAL MELANOMA” (INSERM (INSTITUT NATIONAL DE LA SANTÉ ET DE LA RECHERCHE …, priority 2020, published 2023)

What was measured:
Type in all cases: cell-based, human
[1] = tested on: 92.1 primary uveal melanoma cells; assay: 3D spheroid (melanosphere) assay of 92.1 cells; details: 96 h
From the text: FIG. 8: HES6 knockdown inhibits uveal melanoma anchorage-dependent and—independent cell growth. (A) Q-RT-PCR showing HES6 level in OMM2.5 metastatic melanoma cells transfected with a control siRNA (siCtl) or two different pools of multiple siRNA targeting HES6 (siHES6#1 and siHES6#2). (B-C) Colony formation assay of OMM2.5 and OMM1 metastatic uveal melanoma cells treated with control siRNA or with two different pools of multiple siRNA targeting HES6 (siHES6#1 and siHES6#2). Representative images are shown. (D) 92.1 primary uveal melanoma cells expressing doxycycline-inducible control or two different HES6 shRNA in presence of 1 μg/ml doxycycline for 72 hrs. Efficiency is shown by RT-QPCR. ***p<0.001 (E) Colony formation assay of 92.1 primary uveal melanoma cells expressing doxycycline-inducible control or two different HES6 shRNA. Representative images are shown. Crystal violet was next dissolved and measured at 490 nm. ***p<0.001. (F) 3D spheroid assays of 92.1 cells expressing doxycycline-inducible control or HES6 shRNA in presence of 1 μg/ml doxycycline for 96 hrs. Surface of the imaged spheroid area was determined. ***p<0.001. Representative images are shown.
FIG. 9: NOTCH signaling controls uveal melanoma cell growth and migration. […] Surface of the imaged spheroid area was determined. ***p<0.001. […]

NOTCH reporter activity = assay: NOTCH reporter vector assay in OMM1 uveal melanoma cells
Method: (§1) FIG. 9: NOTCH signaling controls uveal melanoma cell growth and migration. (A) OMIVI1 uveal melanoma cells were transfected with the NOTCH reporter vector before being treated or not with DLL4 1μg/ml in absence or presence of BMS-906024 10 μM. Data shown are mean +SD of three experiments. ***p<0.001 and *p<0.05. (B) 3D spheroid assays of 92.1 cells exposed to DAPT 10μg/ml or BMS-906024 lOpM for 96 h. Surface of the imaged spheroid area was determined. ***p<0.001. Representative images are shown. (C) Boyden chambers experiments with 92.1 cells treated or not with DLL4 1 μg/ml. Data shown are mean+SD of three experiments. **p<0.01. Representative images are shown.
Human uveal melanoma cell lines Me127051, 92.152, OMM2.551 were grown in RPMI glutamax supplemented with 10% FBS, OMM153 were grown in DMEM glutamax supplemented with Sodium Pyruvate 1%, MEM Essential Vitamin Mixture 1%, NEAA 1%, Hepes 1%, 10% FBS, MP46, MP65 (from ATCC) were grown in DMEM/F12 w/Glutamine 10% FBS, Glutamax 2mM, Insulin-Transferin-Selenium 0.5x at 37° C. in a humidified atmosphere containing 5% CO2. LipofectamineTM RNAiMAX and opti-MEM medium were purchased from Invitrogen (San Diego, CA, USA). BMS-906024 (#BM0018) and DAPT (#5942) were obtained from Sigma, DLL4 from R&D systems (#1506-D4-050).

[2] = tested on: Me1270 primary uveal melanoma cells; assay: Migration of Me1270 cells; details: Me1270 cells expressing doxycycline-inducible HES6 shRNA, doxycycline 1 μg/ml 48 hrs, DLL4 1 μg/ml
From the text: FIG. 6: HES6 expression in primary uveal melanomas controls the motile ability. (A) Relative expression of HES/HEY gene family (TCGA dataset). (B) Human primary uveal Me1270 melanoma cells were transfected with a control siRNA (siCtl) or two different pools of multiple siRNA targeting HES6 (siHES6#1 and siHES6#2). siRNA efficacy is shown by RT-QPCR. (C) Migration Me1270 cells transfected with the indicated siRNA. ***p<0.001. Representative images are shown. (D) Colony formation assay of Me1270 cells transfected with the indicated siRNA. ***p<0.001. Representative images are shown.
FIG. 10: HES6 signaling is a key driver of aggressive and motile phenotypes. Migration of Me1270 cells expressing doxycycline-inducible control or HES6 shRNA in presence of 1 μg/ml doxycycline for 48 hrs in presence or absence of DLL4 1 *g/ml. ***p<0.001. Representative images are shown.
Briefly, a single pulse of 50 nM of HES6 siRNA (Dharmacon L-008408-00-0005 and […]
Cell migration was assessed using a modified Boyden chamber assay with 8-μm pore filter inserts for 24-well plates (BD Bioscience). […] Cells adherent to the underside of the filters were fixed with 4% PFA, stained with 0.4% crystal violet and five random fields at x20 magnification were counted. […]

92.1 cells = assay: Boyden chamber migration of 92.1 cells; details: DLL4 1 μg/ml
Method: as §1
FIG. 11: HES6 inhibition impairs metastatic uveal melanoma cells motile ability. Migration of 92.1 cells expressing doxycycline-inducible control or HES6 shRNA in presence of 1 μg/ml doxycycline for 48 hrs in presence or absence of DLL4 1 μg/ml. ***p<0.001. Representative images are shown.
Cell migration was assessed using a modified Boyden chamber assay with 8-μm pore filter inserts for 24-well plates (BD Bioscience). Cells were seeded on the upper chamber of a trans-well and DMEM 7% FBS placed into the lower chamber. Cells adherent to the underside of the filters were fixed with 4% PFA, stained with 0.4% crystal violet and five random fields at x20 magnification were counted. […]

Compound: CN1C(=O)[C@@H](NC(=O)[C@H](CCC(F)(F)F)[C@H](CCC(F)(F)F)C(N)=O)N=C(c2ccccc2)c2ccccc21 [BMS-906024, reference compound]
- melanosphere formation (surface of spheroid area) ([1]; BMS-906024 lOpM): reduced
- effect on DLL4-increased NOTCH reporter activity (NOTCH reporter activity; DLL4 1μg/ml in presence of BMS-906024 10 μM): inhibited

Compound: O=C(O)CN(CC(=O)O)CC(O)CN(CC(=O)O)CC(=O)O [DAPT, diaminopropanol tetraacetic acid]
- melanosphere formation (surface of spheroid area) ([1]; DAPT 10μg/ml): reduced

Compound: DLL4: Delta-like ligand 4, NOTCH natural ligand, from R&D systems (#1506-D4-050)
- NOTCH reporter activity (NOTCH reporter activity; DLL4 1μg/ml): increased
- migration in HES6 knockdown cells [2]: could no longer increased migration
- migration in HES6 knockdown cells (92.1 cells; 92.1 cells expressing doxycycline-inducible HES6 shRNA, doxycycline 1 μg/ml 48 hrs): could no longer increased migration
- uveal melanoma cell migration (92.1 cells; 92.1 cells): enhanced
